Data on two molecules can be found in paper PMC4804213, “Human EAG channels are directly modulated by PIP2 as revealed by electrophysiological and optical interference investigations” (Scientific Reports, 2016).

The target in assay [1] is T1, hEAG1 (Kv10.1, KCNH1) (Homo sapiens, UniProt O95259).
T1 construct: full length; untagged in pcDNA3.1 transiently in CHO cells (patch clamp); tetramer
T1 sequence (O95259 1-962 isoform O95259-2): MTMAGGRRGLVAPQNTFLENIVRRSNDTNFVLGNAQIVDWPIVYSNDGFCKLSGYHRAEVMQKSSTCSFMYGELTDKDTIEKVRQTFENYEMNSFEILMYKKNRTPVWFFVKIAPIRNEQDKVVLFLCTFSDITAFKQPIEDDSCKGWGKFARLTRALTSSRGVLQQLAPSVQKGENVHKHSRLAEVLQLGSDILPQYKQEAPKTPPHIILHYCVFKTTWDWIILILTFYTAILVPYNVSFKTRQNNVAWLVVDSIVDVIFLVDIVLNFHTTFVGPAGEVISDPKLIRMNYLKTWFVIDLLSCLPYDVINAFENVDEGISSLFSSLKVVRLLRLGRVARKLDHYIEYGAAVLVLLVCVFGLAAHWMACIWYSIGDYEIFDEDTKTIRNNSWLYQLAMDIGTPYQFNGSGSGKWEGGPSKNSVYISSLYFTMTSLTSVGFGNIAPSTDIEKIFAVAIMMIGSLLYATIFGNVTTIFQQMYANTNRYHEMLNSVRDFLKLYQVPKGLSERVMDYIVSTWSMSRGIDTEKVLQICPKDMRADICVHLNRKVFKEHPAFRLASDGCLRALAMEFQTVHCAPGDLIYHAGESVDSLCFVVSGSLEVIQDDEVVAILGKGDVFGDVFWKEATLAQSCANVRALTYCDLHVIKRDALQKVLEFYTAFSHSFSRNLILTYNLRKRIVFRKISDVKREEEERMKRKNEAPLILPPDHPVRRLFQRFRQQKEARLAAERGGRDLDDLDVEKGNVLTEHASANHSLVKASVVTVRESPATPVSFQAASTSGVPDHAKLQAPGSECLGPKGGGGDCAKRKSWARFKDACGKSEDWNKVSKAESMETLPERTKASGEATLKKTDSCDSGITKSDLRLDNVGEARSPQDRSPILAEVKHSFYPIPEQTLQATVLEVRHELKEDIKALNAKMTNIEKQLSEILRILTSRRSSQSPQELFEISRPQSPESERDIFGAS
The assay can be described thus: patch clamp, peak current inhibition at […] mV, Hill fit. It is filed as cell-based.

Assay [2] has as its target T1, hEAG1 (Kv10.1, KCNH1). The assay can be described thus: bio-layer interferometry, biotinylated FLAG-tagged channel on streptavidin sensor, Hill fit. The assay is classed as binding. Particulars: 200-s cumulative application epochs; PBS, 0.02% Tween-20, 0.1% BSA, pH 7.4; room temperature; brain-derived lipid of mixed acyl chains.

Like-named read-outs stand apart in the source and are kept apart here.

Turning to `CCCCCCCC(=O)OC[C@H](COP(=O)(O)O[C@@H]1[C@H](O)[C@H](O)[C@@H](OP(=O)(O)O)[C@H](OP(=O)(O)O)[C@H]1O)OC(=O)CCCCCCC` [diC8-PIP2], at hEAG1 (Kv10.1, KCNH1) [1], the 50% inhibitory concentration (IC50) amounted to 18600 ± 600 nM.

At hEAG1 (Kv10.1, KCNH1) [2], PIP2 showed a Kd of 350 ± 40 nM. This molecule yielded an IC50 at hEAG1 (Kv10.1, KCNH1) [1] (200-s application to the intracellular side, peak current at 40 mV, room temperature, brain-derived lipid of mixed acyl chains) of 350 ± 10 nM.
